Test results taken from patent publication US11801255B2, “Lipid disulfide prodrugs and uses related thereto” (priority 2017, dated 2023).
Read-outs that look alike come from different tables or passages of the source.

Key:
HIV-1 = assay: microbe, parasite or virus in culture; details: for TI(CC50/EC50): HIV-1, PBMCs
Experimental: (§1) Compounds synthesized were evaluated against HIV-infected PBMCs and antiviral activity was assessed by measuring reverse transcriptase in cell supernatants. Compounds 11a-e, 12a-e, and 13 were assayed against HBV and qPCR was used to quantify viral DNA following incubation in HepG2.2.15 cells after 6 days.

PBMCs = assay: in vitro; type: cell-based, human
in vitro = type: cell-based, human; details: human; Table 1; viability of uninfected cells reduced by 50%; read-out: HIV-1 CC50 (PBMCs)
HBV = assay: Antiviral activity against HBV in HepG2.2.15 cells, viral DNA by qPCR after 6 days; details: Table 1
Experimental: as §1

HepG2 = assay: Cytotoxicity: viability of uninfected HepG2 cells; type: cell-based; details: Table 1; uninfected cells; read-out: HBV CC50 (HepG2)
[1] = read-out: HIV-1 activity (EC50), PBMCs
[2] = Table 4, read-out: CC50 (PBMCs)
[3] = read-out: EC50 (PBMCs), Table 4, HIV-1

| Compound | TI(CC50/EC50) (HIV-1; Table 4) | EC50 (HIV-1; [1]) | CC50 (PBMCs; [2]) | EC50 (HIV-1; [3]) | also measured |
| --- | --- | --- | --- | --- | --- |
| CCCCCCCCCCCCCCCCSSCCOP(=O)(COC(C)Cn1cnc2c(N)ncnc21)OC (mixture of isomers) [Compound 13] | 1,500 | 26 nM | 38200 nM |  |  |
| CCCCCCCCCCCCCCCCSSCCOP(=O)(COC(C)Cn1cnc2c(N)ncnc21)OCC (mixture of isomers) [Compound 14] | 104 |  | 36200 nM | 349 nM |  |
| CCCCCCCCCCCCCCCCSSCCOP(=O)(COC(C)Cn1cnc2c(N)ncnc21)OCCC (mixture of isomers) [Compound 15] | 49.0 |  | 10600 nM | 216 nM |  |
| CCCCCCCCCCCCCCCCSSCCOP(=O)(COC(C)Cn1cnc2c(N)ncnc21)OCCCC (mixture of isomers) [Compound 16] | 150 |  | 27900 nM | 190 nM |  |
| CCCCCCCCCCCCCCCCSSCCOP(=O)(COC(C)Cn1cnc2c(N)ncnc21)OC(C)CC (mixture of isomers) [Compound 17] | 480 |  | 23700 nM | 49 nM | HIV-1 activity of s-Bu ester relative to n-Bu analogue 16 (HIV-1; vs compound 16): nearly four-fold |
| CCCCCCCCCCCCCCCCSSCCOP(=O)(COC(C)Cn1cnc2c(N)ncnc21)OCC(C)(C)C (mixture of isomers) [Compound 18] | >700 | 140 nM | > 100000 nM |  |  |
| CCCCCCCCCCCCCCCCSSCCOP(=O)(COC(C)Cn1cnc2c(N)ncnc21)OCc1ccccc1 (mixture of isomers) [Compound 19] | 2,300 | 18 nM | 41100 nM |  |  |
| CCCCCCCCCCCCCCCCSSCCOP(=O)(COC(C)Cn1cnc2c(N)ncnc21)Nc1ccccc1 (mixture of isomers) [Compound 20] | 7,000 | 5 nM | 34200 nM |  |  |
| CCCCCCCCCCCCCCCCCCOP(=O)(COC(C)Cn1cnc2c(N)ncnc21)OCCSSCCCCCCCCCCCCCCCC (mixture of isomers) [Compound 21] | >50 | 911 nM | > 50000 nM |  |  |
| CCCCCCCCCCCCCCCCOCCCOP(=O)(O)CO[C@H](C)Cn1cnc2c(N)ncnc21 [CMX-157, Hexadecyloxypropyl-Tenofovir, reference compound] |  |  |  |  | HIV-1 TI (CC50/EC50) (HIV-1): >5000; EC50 (HIV-1; Human immunodeficiency virus 1, PBMC, read-out: HIV-1 EC50 (PBMCs)): 20 nM; EC50 (HIV-1; Human immunodeficiency virus 1, PBMC, read-out: HIV-1 activity (EC50)): 20 nM; CC50 (in vitro): > 100000 nM |
| CCCCCCCCCCSSCCOP(=O)(O)CO[C@H](C)Cn1cnc2c(N)ncnc21.N [Compound 11a] |  | 85 nM |  |  | fold less potent than TDF, HIV-1 (HIV-1; EC50 ratio vs TDF): 18 fold; HIV-1 TI (CC50/EC50) (HIV-1; Table 1, PBMCs): >590; CC50 (PBMCs; Table 1, viability of uninfected cells reduced by 50%, read-out: HIV-1 CC50 (PBMCs)): > 50000 nM; HBV TI (CC50/EC50) (HBV; HepG2): >1; EC50 (HBV; read-out: HBV EC50 (HepG2), inhibit HBV by 50%): > 50000 nM; CC50 (HepG2): > 50000 nM |
